Assay: Metabolic stability in minipig intestinal fluid, quantification of licofelone by HPLC/UV
Assay type: in vitro ADME, Gottingen SPF minipig
Conditions: diluted minipig intestinal fluid; result in words
Experimental: Metabolic Stability of NSAID in Minipig Intestinal Fluid—Quantification of Licofelone
Intestinal tissue/fluid and enterocyte samples were taken from a 10 month old, female Gottingen SPF minipig. The body weight was 21 kg. The minipig was fasted for approximately 28 hours before sampling of intestinal fluid/tissues and enterocytes. On the day of sampling, the minipig was weighed and anaesthetised. The animal was killed by exsanguination before the sampling of intestinal fluid. An intestinal segment was ligated at both ends before removal. The isolated tissue was placed in isotonic saline and opened by a longitudinal cut for sampling of intestinal fluid.
The intestinal tissue from each segment was transferred into a Centrifuge Tube, immersed in 10 ml 50mM phosphate buffer, pH 6.8 and frozen at −70° C.
b) Incubation Experiments with Minipig Intestinal Fluid (without FaSSIF) […]
A set of six reference solutions (solvent: 1 vol IF and 4 vol 2% bovine serum albumin in FaSSIF pH 6.5) with licofelone concentrations between 38.0 and 0.19 μg/ml and the solvent without licofelone were analysed in duplicate. The obtained concentration/peak area data pairs were subjected to linear regression analysis and the resulting calibration curve (r^2=0.9999) was used for quantification of licofelone in incubation experiments.

SMILES	release of licofelone compared with Examples bearing a hydroxy group or an MMF residue as R
CC1(C)Cc2c(-c3ccccc3)c(-c3ccc(Cl)cc3)c(CC(=O)OCCOC(=O)Cc3c(-c4ccc(Cl)cc4)c(-c4ccccc4)c4n3CC(C)(C)C4)n2C1 [Reference Example 5b, 2-[2-[2-(4-chlorophenyl)-6,6-di-methyl-1-phenyl-5,7-dihydropyrrolizin-3-yl]acetyl]oxyethyl-2-[2-(4-chloro-phenyl)-6,6-dimethyl-1-phenyl-5,7-dihydropyrrolizin-3-yl]acetate]	significantly lower
CC1(C)Cc2c(-c3ccccc3)c(-c3ccc(Cl)cc3)c(CC(=O)OCCOCCOCCOCCOC(=O)Cc3c(-c4ccc(Cl)cc4)c(-c4ccccc4)c4n3CC(C)(C)C4)n2C1 [Reference Example 4b, [2-(4-Chloro-phenyl)-6,6-dimethyl-1-phenyl-6,7-dihydro-5H-pyrrolizin-3-yl]acetic acid 2-{2-[2-(2-{2-[2-(4-chloro-phenyl)-6,6-dimethyl-1-phenyl-6,7-dihydro-5H-pyrrolizin-3-yl]-acetoxy}-ethoxy)-ethoxy]-ethoxy}-ethyl ester]	significantly lower
